Entries after “also recorded” stand apart in the source; their conditions may differ.
Legend:
[1] = Oral bioavailability; conditions: in vivo
[2] = tested on: subjects with unstable angina pectoris (UAP); experiment: Phase 2a study, safety and tolerability; type: in vivo, human; conditions: up to 40 mg/day for 5 days
Experimental: (§1) Five Phase 1 studies of VX-702 in healthy subjects and one Phase 2a study evaluating the safety and tolerability of VX-702 in subjects with unstable angina pectoris (UAP) who were scheduled for percutaneous coronary intervention with or without stenting were performed. Multiple dose studies of VX-702 were conducted for up to 28 days.

[3] = tested on: subjects with moderate or severe RA; experiment: Safety evaluations in the twelve-week RA study (adverse events, laboratory, Holter, ECG); type: in vivo, human; conditions: for Mean increase in QTcF: end of treatment, baseline approximately 400 msec, placebo −0.6 msec
Experimental: VX-702 was examined in a randomized, placebo-controlled, multiple-dose, blinded, dose escalation study in 315 subjects with moderate or severe RA. Subjects were divided into 3 approximately equal-sized groups of 100-105 subjects each. In one group, subjects received 5 mg VX-702 once daily or 2.5 mg VX-702 twice daily (total 5 mg/day) for twelve weeks. Another group received 10 mg VX-702 once daily for twelve weeks. Another group subjects received placebo once daily for twelve weeks. Safety evaluations of subjects in the study were also conducted. These included physical examinations, including vital signs measurements (including blood pressure, heart rate, respiration rate, and temperature); clinical laboratory assessments (hematology, chemistry, and urinalysis testing); creatinine clearance; adverse events; Holter monitoring and electrocardiogram (ECG) (12-lead). Responses to treatment were evaluated by changes in ACR (e.g., ACR20) or EULAR criteria. Responses to treatment were measured at Weeks 2, 4, 6, 8, 10 and 12. Safety evaluations were also conducted at these time points. Holter monitoring and ECG were not performed at every time point. Four weeks after completion of the study, responses to treatment and safety evaluations were conducted on subjects.

[4] = tested on: healthy subjects; experiment: Phase 1 studies, tolerability; type: in vivo, human
Experimental: as §1

[5] = tested on: subjects with moderate or severe RA; experiment: Randomized, placebo-controlled, blinded twelve-week study in RA: responses to treatment (ACR, EULAR, DAS28); type: in vivo, human; conditions: for ACR 20 Response / EULAR Response (moderate or good) / Improvement from baseline in DAS28 / Mean reduction in morning stiffness / Percent Change in Swollen Joints / Percent Change in Tender Joints / Percent Improvement in DAS / Percent reduction in morning stiffness: End of Treatment (Week 12)
Experimental: VX-702 was examined in a randomized, placebo-controlled, multiple-dose, blinded, dose escalation study in 315 subjects with moderate or severe RA.
Subjects were divided into 3 approximately equal-sized groups of 100-105 subjects each. In one group, subjects received 5 mg VX-702 once daily or 2.5 mg VX-702 twice daily (total 5 mg/day) for twelve weeks. Another group received 10 mg VX-702 once daily for twelve weeks. Another group subjects received placebo once daily for twelve weeks.
The subjects had to be between the ages of 18-75 years (inclusive) and have active RA of six months of duration or longer by the ACR revised criteria. The subjects had to have a C-reactive protein (CRP) serum levels of greater than 2 mg/dL at time of randomization, a swollen joint count of eight or greater (of 28) and tender joint count of 10 or greater (of 28). The subjects had to have had no prior treatment with Disease modifying anti-rheumatic drugs (DMARD) therapy or inadequate response to DMARD therapy. If a subject had received prior therapy with an antibody or binding protein to TNF (anti-TNF) or with recombinant IL-1 receptor antagonist (IL-1Ra), the subject may have discontinued treatment due to tolerability reasons but not have discontinued treatment because of an inadequate response. Subjects must also have discontinued DMARD therapy (except for sulfasalazine or hydroxychloroquine) for at least one month prior to randomization. Subjects could receive one NSAID and/or prednisone (≦10 mg/day) if they had been treated at a stable dose for at least one month prior to randomization.
Responses to treatment were evaluated by changes in ACR (e.g., ACR20) or EULAR criteria. Responses to treatment were measured at Weeks 2, 4, 6, 8, 10 and 12. Safety evaluations were also conducted at these time points. Holter monitoring and ECG were not performed at every time point. Four weeks after completion of the study, responses to treatment and safety evaluations were conducted on subjects.
ACR Preliminary Definition of Improvement in RA (ACR20):
Required: ≧20% improvement in tender joint count • ≧20% improvement in swollen joint count And, at least 20% improvement in 3 of the following 5: • Subject pain assessment • Subject global assessment • Physician global assessment • Subject self-assessed disability
Acute-phase reactant (CRP or ESR)
The ACR50 and ACR70 responses require ≧50% and ≧70% improvement, respectively, in the same criteria as described for the ACR20 response.
EULAR is described in Fransen et al., Clinical and Experimental Rheumatology 23 (Suppl. 39): S93-99, 2005, which is hereby incorporated by reference in its entirety. EULAR is based on the Disease Activity Score (DAS), a clinical index of RA disease activity that combines information from swollen joints, tender joints, the acute phase response and general health into one continuous measure of rheumatoid inflammation. DAS28 is an index similar to the original DAS, consisting of a 28 tender joint count (range 0-28), a 28 swollen joint count (range 0-28), erythrocyte sedimentation rate (ESR) and an optional general health assessment on a visual analogue scale (range 0-100).

[6] = tested on: patients with RA; conditions: standard of care in patients with RA; cited from earlier work
[7] = tested on: patients with RA; conditions: etanercept by injection in combination with methotrexate; cited from earlier work

NC(=O)c1ccc(N(C(N)=O)c2c(F)cccc2F)nc1-c1ccc(F)cc1F [VX-702]
Oral bioavailability [1]: orally bioavailable
Severity of adverse events [2]: mild to moderate severity
Premature discontinuations for adverse events, patients ([3]; 5 mg VX-702, twelve weeks): 3%
Mean increase in QTcF ([3]; 5 mg group): 3 ms
Premature discontinuations for adverse events, patients ([3]; 10 mg VX-702, twelve weeks): 5%
Mean increase in QTcF ([3]; 10 mg group): 6 ms
Effects on laboratory parameters, including liver function tests ([3]; 5 or 10 mg/day, twelve weeks): No clinically significant effects
Severity of adverse events ([3]; 5 or 10 mg/day, twelve weeks): generally mild to moderate; also recorded: generally rated mild or moderate
Tolerability ([3]; 5 or 10 mg/day, twelve weeks): well tolerated
Holter monitoring: ventricular ectopic activity and arrhythmias versus placebo ([3]; 24 to 72-hour continuous EKG, 6 times/patient): did not reveal an increased tendency for arrhythmias
Skin disorders (rash, acne, itching), patients ([3]; VX-702-treated patients): approximately 9%
Isolated serious adverse events, patients ([3]; VX-702-treated patients (5 and 10 mg groups)): 4-7%
Infections (upper respiratory infections, gastroenteritis, nasopharyngitis, etc), patients ([3]; VX-702-treated patients, placebo 5%): 10%
Gastrointestinal disorders (nausea, vomiting, diarrhea), patients ([3]; VX-702-treated patients, placebo 6%): 8%
Patients with maximal increase in QTcF of >60 msec ([3]; at any point in the study): No patient
Patients with ALT value above the upper limit of normal ([3]; at each on-treatment visit, placebo 1-2%): 2-4%
Patients discontinued for elevations in liver function tests ([3]; twelve weeks): No patients
Patients with ALT elevation to three times the upper limit of normal ([3]; twelve weeks): No patient
Severity of adverse events ([4]; Phase 1, healthy subjects): mild or moderate severity
Tolerability ([4]; dosages of up to 20 mg/day, multiple dose up to 28 days, healthy subjects): moderately to well tolerated
ACR 20 Response ([5]; 5 mg VX-702 per day): 36%
EULAR Response (moderate or good) ([5]; 5 mg VX-702 per day): 40%
Improvement from baseline in DAS28 ([5]; 5 mg VX-702 per day): −1.0
Mean reduction in morning stiffness ([5]; 5 mg VX-702 per day): -98 min
Percent Change in Swollen Joints ([5]; 5 mg VX-702 per day): −35%
Percent Change in Tender Joints ([5]; 5 mg VX-702 per day): −28%
Percent Improvement in DAS ([5]; 5 mg VX-702 per day): −15%
Percent reduction in morning stiffness ([5]; 5 mg VX-702 per day): −21.6%
EULAR Response (moderate or good) ([5]; 5 mg VX-702 per day, listed as 702): 40%
Symptoms of RA compared to placebo ([5]; 5 mg or 10 mg once daily for twelve weeks, Week 12): showed an improvement in their symptoms
ACR 20 Response ([5]; 10 mg VX-702 once daily): 40%
EULAR Response (moderate or good) ([5]; 10 mg VX-702 once daily): 44%
Improvement from baseline in DAS28 ([5]; 10 mg VX-702 once daily): −1.2
Mean reduction in morning stiffness ([5]; 10 mg VX-702 once daily): -82 min
Percent Change in Swollen Joints ([5]; 10 mg VX-702 once daily): −46%
Percent Change in Tender Joints ([5]; 10 mg VX-702 once daily): −36%
Percent Improvement in DAS ([5]; 10 mg VX-702 once daily): −18%
Percent reduction in morning stiffness ([5]; 10 mg VX-702 once daily): −2.7%
ACR20 response rates, dose-response ([5]; placebo, 5 mg, 10 mg, Jonckheere-Terpstra test, p=0.02): dose-dependent statistically significant increase

CN(Cc1cnc2nc(N)nc(N)c2n1)c1ccc(C(=O)N[C@@H](CCC(=O)O)C(=O)O)cc1 [methotrexate]
Response (improvement) often observed [6]: less than 50%

etanercept
Clinical remission rate [7]: 35%
